According to patent US8022089B2, “Isoxazoline-substituted benzamide compound and pesticide” (Nissan Chemical Industries, Ltd., priority 2004, dated 2011):

In the case of CNc1cc(C2=NOC(c3cc(Cl)cc(Cl)c3)(C(F)(F)F)C2)ccc1C(=O)NCC(F)(F)F (stereo not shown), the melting point is reported as 156 to 158 °C.
